Here are results for six molecules from patent US8242274B2, “Triazolopyridine kinase inhibitors useful for the treatment of degenerative and inflammatory diseases” (Galapagos NV, priority 2008, dated 2012).

Series [1] in a line: Caco2 permeability, bi-directional. It is filed as in vitro ADME. As to conditions: human; for Papp A→B at 1 h, 10 μM: Caco-2, pH 7.4. Here is the method:
Bi-directional Caco-2 assays were performed as described below. Caco-2 cells were obtained from European Collection of Cell Cultures (ECACC, cat 86010202) and used after a 21 day cell culture in 24-well Transwell plates (Fisher TKT-545-020B).
2×10^5 cells/well were seeded in plating medium consisting of DMEM+GlutaMAXI+1% NEAA+10% FBS (FetalClone II)+1% Pen/Strep. The medium was changed every 2-3 days.
Test and reference compounds (propranolol and rhodamine 123 or vinblastine, all purchased from Sigma) were prepared in Hanks' Balanced Salt Solution containing 25 mM HEPES (pH 7.4) and added to either the apical (125 μL) or basolateral (600 μL) chambers of the Transwell plate assembly at a concentration of 10 μM with a final DMSO concentration of 0.25%.
50 μM Lucifer Yellow (Sigma) was added to the donor buffer in all wells to assess integrity of the cell layers by monitoring Lucifer Yellow permeation. As Lucifer Yellow (LY) cannot freely permeate lipophilic barriers, a high degree of LY transport indicates poor integrity of the cell layer.
After a 1 hour incubation at 37° C. while shaking at an orbital shaker at 150 rpm, 70 μL aliquots were taken from both apical (A) and basal (B) chambers and added to 100 μLl 50:50 acetonitrile:water solution containing analytical internal standard (0.5 μM carbamazepine) in a 96 well plate.
Lucifer yellow was measured with a Spectramax Gemini XS (Ex 426 nm and Em 538 nm) in a clean 96 well plate containing 150 μL of liquid from basolateral and apical side.
Concentrations of compound in the samples were measured by high performance liquid-chromatography/mass spectroscopy (LC-MS/MS).
The Efflux ratios, as an indication of active efflux from the apical cell surface, were calculated using the ratio of PappB>A/PappA>B.
On the technique in general: Caco-2 monolayers are a common model of the intestinal barrier.

Series [2] relates to pSTAT1(2)-luciferase reporter. As to the kind of experiment: JAK-STAT signalling assay (HeLa cells, OSM trigger). The class given is cell-based. As to conditions: human OSM 33 ng/mL. Here is the method: HeLa cells were maintained in Dulbecco's Modified Eagle's Medium (DMEM) containing 10% heat inactivated fetal calf serum, 100 U/mL penicillin and 100 μg/mL streptomycin. HeLa cells were used at 70% confluence for transfection. 20,000 cells in 87 μL cell culture medium were transiently transfected with 40 ng pSTAT1(2)-luciferase reporter (Panomics), 8 ng of LacZ reporter as internal control reporter and 52 ng of pBSK using 0.32 μL Jet-PEI (Polyplus) as transfection reagent per well in 96-well plate format. After overnight incubation at 37° C., 10% CO2, transfection medium was removed. 75 μL of DMEM+1.5% heat inactivated fetal calf serum was added. 15 μL of compound at 6.7× concentration was added for 60 min and then 10 μL of human OSM (Peprotech) at 33 ng/mL final concentration. […]
40 μL of cell lysate was used to read β-galactosidase activity by adding 180 μL βGal solution (30 μl ONPG 4 mg/mL+150 μL β-Galactosidase buffer (0.06 M Na2HPO4, 0.04 M NaH2PO4, 1 mM MgCl2)) for 20 min. The reaction was stopped by addition of 50 μL Na2CO3 1 M. Absorbance was read at 405 nm.
Luciferase activity was measured using 40 μL cell lysate plus 40 μl of Steadylite® as described by the manufacturer (Perkin Elmer), on the Envision (Perkin Elmer). […]

The test system of series [3] is TNF release. As to the kind of experiment: Septic shock model (LPS). The class given is in vivo, mice. The conditions noted are these: for reduction in the TNF release: statistically significant. Here is the method:
Injection of lipopolysaccharide (LPS) induces a rapid release of soluble tumour necrosis factor (TNF-alpha) into the periphery. This model is used to analyse prospective blockers of TNF release in vivo.
Six BALB/cJ female mice (20 g) per group were treated at the intended dosing once, po. Thirty minutes later, LPS (15 μg/kg; E. Coli serotype 0111:B4) was injected ip. Ninety minutes later, mice were euthanized and blood was collected. Circulating TNF alpha levels were determined using commercially available ELISA kits. Dexamethasone (5 μg/kg) was used as a reference anti-inflammatory compound. Selected compounds are tested at one or multiple doses, e.g. 3 and/or 10 and/or 30 mg/kg, po.

For series [4], the target named is T1, hERG channels (Homo sapiens, UniProt Q12809).
T1 construct: expressed in transfected cells
Kind of series: hERG patch clamp assay, liability for QT prolongation. It is filed as cell-based. Here is the method:
Electrodes were manufactured from GC150TF pipette glass (Harvard), resistance was between 2 and 3 MΩ.
IC50 and IC20 values were calculated for each compound tested. The fold difference between the IC20 and the unbound Cmax concentrations of the test compound obtained at relevant therapeutic doses as determined by results obtained from the rat CIA model was calculated.
For the concentration response curves, peak tail current amplitude was measured during the voltage step to −50 mV.
(Block of hERG is tested as a sign of cardiac risk.)

A short description of series [5]: in vivo. As to conditions: male, Sprague-Dawley, rat, po. The procedure:
A 7-day oral toxicity study with test compounds was performed in Sprague-Dawley male rats to assess their toxic potential and toxicokinetics, at daily doses of 100, 300 and 500 mg/kg/day, by gavage, at the constant dosage-volume of 5 mL/kg/day.
The test compounds were formulated in 30% (v/v) HPβCD in purified water. Each group included 5 principal male rats as well as 3 satellite animals for toxicokinetics. A fourth group was given 30% (v/v) HPβCD in water only, at the same frequency, dosage volume and by the same route of administration, and acted as the vehicle control group.
Compounds 37 and 176 were tested in this protocol.

Structures are written as SMILES.

T1 sequence (Q12809 whole entry): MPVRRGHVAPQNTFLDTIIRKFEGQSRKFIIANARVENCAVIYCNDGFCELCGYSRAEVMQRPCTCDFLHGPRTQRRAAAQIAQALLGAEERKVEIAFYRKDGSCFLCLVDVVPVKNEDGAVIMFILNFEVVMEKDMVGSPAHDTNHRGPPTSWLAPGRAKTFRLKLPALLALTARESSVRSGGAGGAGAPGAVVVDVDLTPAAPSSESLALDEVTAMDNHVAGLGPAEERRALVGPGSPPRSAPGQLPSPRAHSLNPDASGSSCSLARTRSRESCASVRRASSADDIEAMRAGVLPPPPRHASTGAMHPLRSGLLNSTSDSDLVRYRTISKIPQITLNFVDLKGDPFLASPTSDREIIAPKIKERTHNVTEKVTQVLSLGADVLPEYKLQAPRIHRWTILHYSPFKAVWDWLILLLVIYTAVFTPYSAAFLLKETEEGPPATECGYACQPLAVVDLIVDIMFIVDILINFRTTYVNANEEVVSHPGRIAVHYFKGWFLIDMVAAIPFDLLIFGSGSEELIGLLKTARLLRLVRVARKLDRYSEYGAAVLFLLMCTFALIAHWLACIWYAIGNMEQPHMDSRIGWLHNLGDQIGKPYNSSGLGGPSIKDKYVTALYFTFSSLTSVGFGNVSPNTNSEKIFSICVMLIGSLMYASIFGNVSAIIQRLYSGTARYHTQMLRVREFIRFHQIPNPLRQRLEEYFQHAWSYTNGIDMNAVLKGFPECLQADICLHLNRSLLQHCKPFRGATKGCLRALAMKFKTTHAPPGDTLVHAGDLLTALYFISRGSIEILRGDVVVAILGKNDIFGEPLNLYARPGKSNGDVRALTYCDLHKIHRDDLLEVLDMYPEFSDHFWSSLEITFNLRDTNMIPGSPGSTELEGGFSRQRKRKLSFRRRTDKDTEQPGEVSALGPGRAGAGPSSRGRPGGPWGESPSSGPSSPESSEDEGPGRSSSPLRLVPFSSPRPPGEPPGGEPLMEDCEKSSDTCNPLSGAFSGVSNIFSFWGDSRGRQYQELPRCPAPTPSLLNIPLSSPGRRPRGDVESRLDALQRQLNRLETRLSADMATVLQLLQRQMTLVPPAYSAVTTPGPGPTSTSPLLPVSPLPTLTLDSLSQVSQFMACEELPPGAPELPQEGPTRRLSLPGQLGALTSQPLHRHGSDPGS

Consider `O=C(Nc1nc2cccc(-c3ccc(NCc4ccccc4)cc3)n2n1)C1CC1` [Compound 72, N-(5-(4-(benzylamino)phenyl)-[1,2,4]triazolo[1,5-a]pyridin-2-yl)cyclopropanecarboxamide], for which the apparent permeability from apical to basolateral (Papp A→B) – broadly, how fast a substance crosses the layer from the apical side – at 1 h, 10 μM in series [1] stood at 14.9 ×10⁻⁶ cm/s.
Regarding `CC(=O)Nc1ccc(COc2ccc(-c3cccc4nc(NC(=O)C5CC5)nn34)cc2)cc1` [Compound 92, N-(5-(4-(4-acetamidobenzyloxy)phenyl)-[1,2,4]triazolo[1,5-a]pyridin-2-yl)cyclopropanecarboxamide], in series [2], the EC50 – broadly, the midpoint of the concentration-response curve – was over 1000 nM.
Consider `O=C(Nc1nc2cccc(-c3ccc(OCc4ccccn4)cc3)n2n1)C1CC1` [Compound 37, N-(5-(4-(pyridin-2-ylmethoxy)phenyl)-[1,2,4]triazolo[1,5-a]pyridin-2-yl)cyclopropanecarboxamide], for which the “activity in the septic shock model” value in series [3] (3 mg/kg) is given as “active”. For the same molecule, the “Fold difference between the hERG IC20 and the unbound Cmax” value in series [4] (Dose 10 (rat CIA model)) came out at 7. Further, in series [1] (Caco-2, pH 7.4, PappB>A/PappA>B), the efflux ratio (commonly the permeability from basolateral to apical divided by that in the opposite direction, in the common usage) at 1 h, 10 μM worked out at 0.85. Also, the Papp A→B at 1 h, 10 μM in series [1] came out at 23 ×10⁻⁶ cm/s. In addition, the NOAEL (commonly the highest dose or exposure tested at which no adverse effect was seen) at 7 day in series [5] came to 500 mg/kg.
Take `O=C(Nc1nc2cccc(-c3ccc(OCc4cccnc4)cc3)n2n1)C1CC1` [Compound 36, N-(5-(4-(pyridin-3-ylmethoxy)phenyl)-[1,2,4]triazolo[1,5-a]pyridin-2-yl)cyclopropanecarboxamide]: the “activity in the septic shock model” value in series [3] (30 mg/kg) is listed as “active”. In series [1], this molecule had a Papp A→B at 1 h, 10 μM of 36.5 ×10⁻⁶ cm/s.
In series [2], `N#Cc1ccc(COc2ccc(-c3cccc4nc(NC(=O)C5CC5)nn34)cc2)cn1` [Compound 176, N-(5-(4-((6-cyanopyridin-3-yl)methoxy)phenyl)-[1,2,4]triazolo[1,5-a]pyridin-2-yl)cyclopropanecarboxamide] had a 50% effective concentration (EC50) of 1 to 100 nM. For the same molecule, the “reduction in the TNF release” value in series [3] (3 mg/kg po) and in series [3] (10 mg/kg po) was over 50% in each case. The “Fold difference between the hERG IC20 and the unbound Cmax” value in series [4] (Dose 3 (rat CIA model)) is listed as 137; in series [4] (Dose 10 (rat CIA model)), 82. Also, the “potential for QT prolongation” value in series [4] (compared to Compound 37) is “much lower potential QT prolongation issue”. This molecule also gave a Papp A→B at 1 h, 10 μM in series [1] of 10.6 ×10⁻⁶ cm/s. Also, the NOAEL at 7 day in series [5] was 500 mg/kg.
Regarding `O=C(Nc1nc2cccc(-c3ccc(OCc4ccc(C(F)(F)F)nc4)cc3)n2n1)C1CC1` [Compound 78, N-(5-(4-((6-(trifluoromethyl)pyridin-3-yl)methoxy)phenyl)-[1,2,4]triazolo[1,5-a]pyridin-2-yl)cyclopropanecarboxamide], the Papp A→B at 1 h, 10 μM in series [1] was determined as 2 ×10⁻⁶ cm/s.
